These results are taken from patent US12285416B2 (priority 2017, dated 2025).

Assay [1] deals with rat left phrenic nerve-diaphragm preparation.
For assay [2] the test system is unchanged. The source holds these as a separate data set.
For assay [3] the test system is unchanged. The source holds these as a separate data set.
For the next assay, the system named is anesthetized rabbit. The settings on record: in vivo, iv.
Assay [4] deals with anesthetized/ventilated rat. The settings on record: in vivo.

Several values for one entry are separate records, joined by “and”; a condition that tells them apart may be missing. Equal entries are not always repeated. Where two headings read alike, the source gives them in different places.

As to `C[C@@H]1O[C@H](C[N+](C)(C)C)C[C@H]1O` (racemic) [Muscarine, (±)-Muscarine chloride hydrate], the “effect on force and maximal rate of change” value in assay [1] is “minimal or slight reduction of force, and maximal rate of change”. Further, in assay [1] (hydrate), the “Contraction Amplitude, Raw Values” was 14.5 ± 1.4 g and 13.5 ± 1.2 g and 13.3 ± 1.2 g and 13.5 ± 1.3 g; the “Max Rate of Change, Raw Values” was 341 ± 45 g/s and 314 ± 45 g/s and 321 ± 41 g/s and 329 ± 39 g/s.
In the case of `CN(C)C(=O)Oc1cccc([N+](C)(C)C)c1` [Neostigmine], in assay [2], the “Contraction Amplitude, Raw Values” came to 6.3 ± 0.5 g; the “Contraction Amplitude, Δ from 50% reduction with MMB4” value was 0.6 g and 0.6 ± 0.1 g; the “Max Rate of Change, Raw Values” is given as 153 ± 12 g/s; the “Max Rate of Change, Δ from 50% reduction with MMB4” value was found to be 20 ± 4 g/s. Moreover, in assay [3], the “Contraction Amplitude, Neostigmine with d-tubocurarine Raw Values” was 5.9 ± 0.8 g and 5.2 ± 0.6 g and 4.7 ± 1.2 g; the “Max Rate of Change, Neostigmine with d-tubocurarine Raw Values” is 141 ± 30 g/s and 131 ± 21 g/s and 108 ± 39 g/s.
On to `CN1CCC[C@H]1c1cccnc1` [Nicotine, (−)-Nicotine detartrate], for which, in assay [1], the “Contraction Amplitude, Raw Values” was 10.8 ± 3.2 g and 9.7 ± 2.6 g; the “Max Rate of Change, Raw Values” is 229 ± 97 g/s and 225 ± 102 g/s and 201 ± 94 g/s; the effect on contraction entry is recorded as “depressed contraction”; the “effect on contraction and maximal rate of change” value is recorded as “positive effect”.
Consider `CS(=O)(=O)[O-].[Na+]` [Sodium Methanesulfonate], for which, in assay [1], the “Contraction Amplitude, Raw Values” was 9.1 ± 0.8 g and 8.9 ± 0.8 g and 8.6 ± 0.8 g and 8.2 ± 0.7 g; the “Max Rate of Change, Raw Values” is 211 ± 48 g/s and 214 ± 48 g/s and 210 ± 48 g/s and 197 ± 45 g/s; the effect on function result is reported as “minimal effect on function”.
Turning to `COc1cc2c3cc1Oc1cc(ccc1O)C[C@@H]1c4c(cc(OC)c(O)c4Oc4ccc(cc4)C[C@@H]3N(C)CC2)CC[N+]1(C)C` [d-tubocurarine, d-tubocurarine chloride hydrate], in assay [3], the “Contraction Amplitude, Raw Values” is on record as 5.2 ± 0.8 g and the “Max Rate of Change, Raw Values” is 106 ± 22 g/s. For the same compound, in assay [3] (hydrate), the “Contraction Amplitude, d-tubocurarine Raw Values” is 5.2 ± 0.9 g and 4.3 ± 0.5 g and 4.4 ± 1.1 g; the “Max Rate of Change, d-tubocurarine Raw Values” is 119 ± 31 g/s and 101 ± 20 g/s and 101 ± 35 g/s.
For the compound Cisatracurium (Besilate salt), in the assay on anesthetized rabbit, the “Diaphragmatic Force” value came to 5.4 ± 1.0 g, the “Diaphragmatic Force relative change from baseline” value is on record as −77 ± 6%, the HR was determined as 282 ± 7 bpm and the “HR relative change from baseline” value is reported as 0 ± 1%. In addition, in the assay on anesthetized rabbit, the ITP is recorded as 15.1 ± 0.6 mmHg, the “ITP relative change from baseline” value amounted to 7 ± 4%, the LVEDP was 7.6 ± 1.1 mmHg and the “LVEDP relative change from baseline” value is given as 17 ± 8%. In addition, in the assay on anesthetized rabbit, the LVdP/dtmax is 2760 ± 246 mmHg/s, the “LVdP/dtmax relative change from baseline” value is listed as −6 ± 3%, the MAP worked out at 63 ± 6 mmHg and the “MAP relative change from baseline” value is reported as −3 ± 3%. In addition, in the assay with anesthetized rabbit, the “Skeletal Force” value was 1.1 ± 0.5 g, the “Skeletal Force relative change from baseline” value is given as −86 ± 5%, the tau is on record as 8.7 ± 0.2 ms and the “tau relative change from baseline” value is 0 ± 1%. In the assay on anesthetized rabbit (0.1 mg/kg), the “effect on cardiovascular function” value is recorded as “negligible effects in cardiovascular function”; the “effect on skeletal and diaphragmatic contractions” value was “reversible inhibition of skeletal and diaphragmatic contractions”.
For the compound pralidoxime chloride [2-PAM], in assay [4], the “effect on diaphragmatic function” value is recorded as “depression”.
